Assay results published in patent US9730944B2, “Antiviral activity of novel bicyclic heterocycles” (priority 2010, dated 2017).

Key:
HIV-1 strain IIIB = assay: Inhibition of replication of HIV-1 (IIIB strain) in MT-4 cells, MTT assay; assay type: cell-based; conditions: Human immunodeficiency virus 1, IIIB, MT4, 120 h; MT-4 cells, MTT assay, five days after infection, 50% protection from cytopathic effect; read-out: EC50 (μM) HIV-1 (IIIB)
HIV-2 strain (ROD) = assay: Inhibition of replication of HIV-2 (ROD strain) in MT-4 cells, MTT assay; assay type: cell-based; conditions: Human immunodeficiency virus 2, MT4, 120 h; MT-4 cells, MTT assay, five days after infection, 50% protection from cytopathic effect; read-out: EC50 (μM) HIV-2 (ROD)
in vitro = conditions: human
[1] = tested on: genotype 1a H-77 replicon; assay: HCV-1a replicon potency in RLuc-1 cells, bioluminescence; assay type: cell-based; conditions: for HCV-1a Replicon Selectivity Index: CC50/EC50, genotype 1a replicon; for EC50: Hepatitis C virus, 72 h, read-out: HCV-1a Replicon EC50 (μM)
[2] = Cytotoxicity in HCV-1a replicon cells, Promega CellTiter-Glo cell viability assay

SMILES: Nc1nc(N2CCOCC2)c2nc(-c3ccc(F)cc3)sc2n1 [Example 33, 2-(4-fluorophenyl)-7-morpholino-thiazolo[5,4-d]pyrimidin-5-amine]
- EC50 (HIV-1 strain IIIB): > 207 µM
- EC50 (HIV-2 strain (ROD)): 141 µM
- CC50 (in vitro): 235 µM

SMILES: Cc1cccc(NC(=O)N2CCN(c3nc(N)nc4sc(C(C)c5ccc(F)cc5)nc34)CC2)c1 (stereo not drawn) [Example 68, 4-(5-amino-2-(1-(4-fluorophenyl)ethyl)thiazolo[5,4-d]pyrimidin-7-yl)-N-m-tolylpiperazine-1-carboxamide]
- EC50 (HIV-1 strain IIIB): > 30.3 µM
- EC50 (HIV-2 strain (ROD)): > 30.3 µM
- CC50 (in vitro): 30.3 µM

SMILES: COCCOc1nc(N)nc2sc(-c3ccc(F)cc3)nc12 [Example 29, 2-(4-fluorophenyl)-7-(2-methoxyethoxy)-thiazolo[5,4-d]pyrimidin-5-amine]
- EC50 (HIV-1 strain IIIB): > 390 µM
- EC50 (HIV-2 strain (ROD)): 220 µM
- CC50 (in vitro): > 390 µM

SMILES: Nc1nc(N2CCN(c3nccs3)CC2)c2nc(-c3ccc(F)cc3)sc2n1 [Example 36, 2-(4-fluorophenyl)-7-(4-(thiazol-2-yl)piperazin-1-yl)thiazolo[5,4-d]pyrimidin-5-amine]
- EC50 (HIV-1 strain IIIB): > 29 µM
- EC50 (HIV-2 strain (ROD)): > 36.4 µM
- CC50 (in vitro): 36.4 µM

SMILES: CSc1nc2c(N3CCN(C(=O)COc4ccc(Cl)cc4)CC3)nc(N)nc2[nH]1 [Example 424, 1-(4-(2-amino-8-(methylthio)-9H-purin-6-yl)piperazin-1-yl)-2-(4-chlorophenoxy)ethanone]
- HCV-1a Replicon Selectivity Index [1]: >1.3
- EC50 [1]: 34.8 µM
- CC50 at 72 h [2]: > 44.4 µM

SMILES: Nc1nc(N2CCN(C(=O)COc3ccc(Cl)cc3)CC2)c2nc(-c3cccc(Cl)c3)[nH]c2n1 [Example 393, 1-(4-(2-amino-8-(3-chlorophenyl)-9H-purin-6-yl)piperazin-1-yl)-2-(4-chlorophenoxy)ethanone]
- HCV-1a Replicon Selectivity Index [1]: 2.5
- EC50 [1]: 3.2 µM
- CC50 at 72 h [2]: 8.1 µM

SMILES: Nc1nc(N2CCCN(C(=O)COc3ccc(Cl)cc3)CC2)c2nc(-c3ccc(F)cc3)[nH]c2n1 [Example 421, 1-(4-(2-amino-8-(4-fluorophenyl)-9H-purin-6-yl)-1,4-diazepan-1-yl)-2-(4-chlorophenoxy)ethanone]
- HCV-1a Replicon Selectivity Index [1]: 1.9
- EC50 [1]: 12.7 µM
- CC50 at 72 h [2]: 23.8 µM

SMILES: CCOc1nc(N)nc2sc(-c3ccc(F)cc3)nc12 [Example 30, 7-ethoxy-2-(4-fluorophenyl)thiazolo[5,4-d]pyrimidin-5-amine]
- EC50 (HIV-1 strain IIIB): > 373 µM
- EC50 (HIV-2 strain (ROD)): > 373 µM
- CC50 (in vitro): > 373 µM

SMILES: Nc1nc(N2CCN(C(=O)Cc3cccs3)CC2)c2nc(-c3ccc(F)cc3)[nH]c2n1 [Example 403, 1-(4-(2-amino-8-(4-fluorophenyl)-9H-purin-6-yl)piperazin-1-yl)-2-(thiophen-2-yl)ethanone]
- HCV-1a Replicon Selectivity Index [1]: 0.8
- EC50 [1]: 11.3 µM
- CC50 at 72 h [2]: 9.6 µM

SMILES: Nc1nc(N2CCOCC2)c2cc(-c3ccc(F)cc3)sc2n1 [Example 364, 6-(4-fluorophenyl)-4-morpholinothieno[2,3-d]pyrimidin-2-amine]
- EC50 (HIV-1 strain IIIB): > 239 µM
- EC50 (HIV-2 strain (ROD)): > 239 µM
- CC50 (in vitro): 239 µM

SMILES: Nc1nc(N2CCN(C(=O)COc3ccc(Cl)cc3)CC2)c2nc(-c3ccc(Cl)cc3)[nH]c2n1 [Example 392, 1-(4-(2-amino-8-(4-chlorophenyl)-9H-purin-6-yl)piperazin-1-yl)-2-(4-chlorophenoxy)ethanone]
- HCV-1a Replicon Selectivity Index [1]: 4.6
- EC50 [1]: 2.7 µM
- CC50 at 72 h [2]: 12.2 µM

SMILES: Nc1nc(N2CCN(C(=O)COc3ccc(Cl)cc3)CC2)c2nc(-c3ccc(F)cc3)oc2n1 [Example 169, 1-(4-(5-amino-2-(4-fluorophenyl)oxazolo[5,4-d]pyrimidin-7-yl)piperazin-1-yl)-2-(4-chlorophenoxy)ethanone]
- EC50 (HIV-1 strain IIIB): > 50 µM
- EC50 (HIV-2 strain (ROD)): > 50 µM
- CC50 (in vitro): > 50 µM

SMILES: Nc1nc(N2CCOCC2)c2nc(Cc3ccc(F)cc3)sc2n1 [Example 34, 2-(4-fluorobenzyl)-7-morpholino-thiazolo[5,4-d]pyrimidin-5-amine]
- EC50 (HIV-1 strain IIIB): > 362 µM
- EC50 (HIV-2 strain (ROD)): > 362 µM
- CC50 (in vitro): > 362 µM

SMILES: Cc1cccc(NC(=O)N2CCN(c3nc(N)nc4sc(CCc5ccc(F)cc5)nc34)CC2)c1 [Example 133, 5-amino-2-[2-(4-fluorophenyl)ethyl]-7-(4-m-tolylcarbamoylpiperazin-1-yl)-thiazolo[5,4-d]pyrimidine]
- HCV-1a Replicon Selectivity Index [1]: 1.5
- EC50 [1]: 10.7 µM
- CC50 at 72 h [2]: 15.8 µM

SMILES: Nc1nc(N2CCN(CC(=O)NCCc3ccccc3)CC2)c2nc(CCc3ccc(F)cc3)sc2n1 [Example 141, 5-amino-2-[2-(4-fluorophenyl)ethyl]-7-(4-(phenethylcarbamoyl-methyl)piperazin-1-yl)-thiazolo[5,4-d]pyrimidine]
- HCV-1a Replicon Selectivity Index [1]: 1.0
- EC50 [1]: 15.8 µM
- CC50 at 72 h [2]: 16 µM

SMILES: CSc1nc(N)nc2sc(-c3ccc(F)cc3)nc12 [Example 16, 2-(4-fluorophenyl)-7-(methylthio)thiazolo[5,4-d]pyrimidin-5-amine]
- EC50 (HIV-1 strain IIIB): > 233 µM
- EC50 (HIV-2 strain (ROD)): > 82.1 µM
- CC50 (in vitro): 82.1 µM

SMILES: Nc1nc(N2CCN(c3ccc(Cl)cc3)CC2)c2nc(-c3ccc(F)cc3)[nH]c2n1 [Example 414, 6-(4-(4-chlorophenyl)piperazin-1-yl)-8-(4-fluorophenyl)-9H-purin-2-amine]
- HCV-1a Replicon Selectivity Index [1]: 1.2
- EC50 [1]: 7.3 µM
- CC50 at 72 h [2]: 8.7 µM

SMILES: Nc1nc(N2CCN(C(=O)c3ccc(Cl)cc3)CC2)c2nc(CCc3cccs3)sc2n1 [Example 156, 5-amino-2-(2-thiophen-2-ylethyl)-7-(4-(4-chloro-benzoyl)piperazin-1-yl)thiazolo[5,4-d]pyrimidine]
- HCV-1a Replicon Selectivity Index [1]: 1.5
- EC50 [1]: 20.7 µM
- CC50 at 72 h [2]: 30.7 µM

SMILES: CCCCCN1CCN(c2nc(N)nc3sc(-c4ccc(F)cc4)nc23)CC1 [Example 37, 2-(4-fluorophenyl)-7-(4-pentylpiperazin-1-yl)thiazolo[5,4-d]pyrimidin-5-amine]
- EC50 (HIV-1 strain IIIB): > 312 µM
- EC50 (HIV-2 strain (ROD)): 212 µM
- CC50 (in vitro): > 312 µM

SMILES: Nc1nc(SCc2ccccc2)c2nc(-c3ccc(F)cc3)sc2n1 [Example 28, 7-(benzylthio)-2-(4-fluorophenyl)thiazolo[5,4-d]pyrimidin-5-amine]
- EC50 (HIV-1 strain IIIB): > 339 µM
- EC50 (HIV-2 strain (ROD)): > 339 µM
- CC50 (in vitro): > 339 µM

SMILES: Nc1nc(N2CCN(Cc3ccccc3)CC2)c2nc(-c3ccc(F)cc3)sc2n1 [Example 39, 7-(4-benzylpiperazin-1-yl)-2-(4-fluorophenyl)thiazolo[5,4-d]pyrimidin-5-amine]
- EC50 (HIV-1 strain IIIB): > 45.2 µM
- EC50 (HIV-2 strain (ROD)): > 45.2 µM
- CC50 (in vitro): 45.2 µM

SMILES: Cc1cccc(NC(=O)N2CCN(c3nc(N)nc4sc(Cc5ccc(F)cc5)nc34)CC2)c1 [Example 44, 4-(5-amino-2-(4-fluorobenzyl)thiazolo[5,4-d]pyrimidin-7-yl)-N-m-tolylpiperazine-1-carboxamide]
- EC50 (HIV-1 strain IIIB): 4.02 µM
- EC50 (HIV-2 strain (ROD)): 0.85 µM
- CC50 (in vitro): 10.1 µM

SMILES: Cc1cccc(N2CCN(c3nc(N)nc4sc(-c5ccc(F)cc5)nc34)CC2)c1 [Example 35, 2-(4-fluorophenyl)-7-(4-m-tolylpiperazin-1-yl)-thiazolo[5,4-d]pyrimidin-5-amine]
- EC50 (HIV-1 strain IIIB): > 234 µM
- EC50 (HIV-2 strain (ROD)): > 38.5 µM
- CC50 (in vitro): 234 µM

SMILES: Nc1nc(N2CCNCC2)c2nc(-c3ccc(F)cc3)sc2n1 [Example 25, 2-(4-fluorophenyl)-7-(piperazin-1-yl)-thiazolo[5,4-d]pyrimidin-5-amine]
- EC50 (HIV-1 strain IIIB): > 1.8 µM
- EC50 (HIV-2 strain (ROD)): > 1.8 µM
- CC50 (in vitro): 1.8 µM

SMILES: Nc1nc(N2CCN(S(=O)(=O)c3ccccc3)CC2)c2nc(-c3ccc(F)cc3)sc2n1 [Example 41, 2-(4-fluorophenyl)-7-(4-(phenylsulfonyl)piperazin-1-yl)thiazolo[5,4-d]pyrimidin-5-amine]
- EC50 (HIV-1 strain IIIB): > 237 µM
- EC50 (HIV-2 strain (ROD)): > 237 µM
- CC50 (in vitro): 237 µM

SMILES: Cc1cccc(NC(=O)N2CCN(c3nc(N)nc4sc(-c5ccc(F)cc5)nc34)CC2)c1 [Example 43, 4-(5-amino-2-(4-fluorophenyl)thiazolo[5,4-d]pyrimidin-7-yl)-N-m-tolylpiperazine-1-carboxamide]
- EC50 (HIV-1 strain IIIB): 0.4 µM
- EC50 (HIV-2 strain (ROD)): 0.39 µM
- CC50 (in vitro): 15.8 µM

SMILES: COc1ccc(OCC(=O)N2CCN(c3nc(N)nc4sc(CCc5ccc(F)cc5)nc34)CC2)cc1 [Example 50, 1-(4-(5-amino-2-(4-fluorophenethyl)thiazolo[5,4-d]pyrimidin-7-yl)piperazin-1-yl)-2-(4-methoxyphenoxy)ethanone]
- EC50 (HIV-1 strain IIIB): 3.5 µM
- EC50 (HIV-2 strain (ROD)): > 212 µM
- CC50 (in vitro): 212 µM

SMILES: Nc1nc(N2CCN(CC(=O)N3CCOCC3)CC2)c2nc(-c3ccc(F)cc3)sc2n1 [Example 38, 2-(4-(5-amino-2-(4-fluorophenyl)thiazolo[5,4-d]pyrimidin-7-yl)piperazin-1-yl)-1-morpholinoethanone]
- EC50 (HIV-1 strain IIIB): > 251 µM
- EC50 (HIV-2 strain (ROD)): > 201 µM
- CC50 (in vitro): 201 µM

SMILES: CCOc1nc(N)nc2sc(Cc3ccc(F)cc3)nc12 [Example 31, 7-ethoxy-2-(4-fluorobenzyl)thiazolo[5,4-d]pyrimidin-5-amine]
- EC50 (HIV-1 strain IIIB): > 411 µM
- EC50 (HIV-2 strain (ROD)): > 411 µM
- CC50 (in vitro): > 411 µM

SMILES: Cc1ccc(NC(=O)N2CCN(c3nc(N)nc4sc(-c5ccc(F)cc5)nc34)CC2)cc1 [Example 42, 4-(5-amino-2-(4-fluorophenyl)-thiazolo[5,4-d]pyrimidin-7-yl)-N-p-tolylpiperazine-1-carboxamide]
- EC50 (HIV-1 strain IIIB): 1.35 µM
- EC50 (HIV-2 strain (ROD)): 0.98 µM
- CC50 (in vitro): 28.2 µM

SMILES: Nc1nc(N2CCN(C(=O)OCc3ccccc3)CC2)c2nc(-c3ccc(F)cc3)sc2n1 [Example 40, benzyl-4-(5-amino-2-(4-fluorophenyl)thiazolo[5,4-d]pyrimidin-7-yl)piperazine-1-carboxylate]
- EC50 (HIV-1 strain IIIB): > 241 µM
- EC50 (HIV-2 strain (ROD)): > 241 µM
- CC50 (in vitro): 241 µM
